For experiment [1], the system named is T47D (PI3Kα H1047R mutant) cells. Kind of experiment: CellTiter-Glo 2.0 luminescent cell viability assay, 72 hours, T47D cells. It is filed as cell-based. The settings on record: Homo sapiens, T47D, 72 h, T47D (PI3Kα H1047R mutant) cells, CellTiter-Glo, approximately 72 hours; read-out: T47D (H1047R mutant) Viability IC50. The method, boiled down:
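Cells seeded at 1000 per well overnight were dosed with a 10-concentration, 1:4 series starting at 10 µM and incubated ~72 h at 37° C. Viability was read by CellTiter-Glo 2.0 luminescence after 30 min at room temperature. IC50 came from four-parameter fits of percent vehicle control.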
(Cellular ATP, detected with luciferase, serves as a proxy for viable cell number.)

For experiment [2], the system named is SKBR3 (PI3Kα wild type) cells. Kind of experiment: CellTiter-Glo 2.0 luminescent cell viability assay, 72 hours, SKBR3 cells. Type of experiment: cell-based. To be noted: Homo sapiens, SK-BR-3, 72 h, SKBR3 (PI3Kα wild type) cells, CellTiter-Glo, approximately 72 hours; read-out: SKBR3 (WT) Viability IC50. An outline of the steps:
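Viability measured via CTG luminescence following roughly 72 hours of compound exposure at 37° C. Dosing used a 10 um starting concentration diluted 1:4 over 10 points; percent-of-vehicle data fitted with a variable-slope four-parameter model for IC50.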

A word on the IC50: it is the concentration at which inhibition is half-maximal.

Turning to `Cc1cc([C@@H](C)Nc2ccccc2C(=O)O)c2nc(N3CC(C(F)(F)F)C3)c(C)c(=O)n2c1` [Example 11-107, (R)-2-((1-(3,7-dimethyl-4-oxo-2-(3-(trifluoromethyl)azetidin-1-yl)-4H-pyrido[1,2-a]pyrimidin-9-yl)ethyl)amino)benzoic acid], the IC50 in experiment [1] was 137 nM; in experiment [2], more than 10000 nM.

Consider `C=C(C#N)CNc1nc2c([C@@H](C)Nc3ccccc3C(=O)O)cc(C)cn2c(=O)c1C#N` [Example 11-108, (R)-2-((1-(3-cyano-2-((2-cyanoallyl)amino)-7-methyl-4-oxo-4H-pyrido[1,2-a]pyrimidin-9-yl)ethyl)amino)benzoic acid], for which the IC50 in experiment [1] is 3690 nM; in experiment [2], more than 10000 nM.

For `Cc1cc([C@@H](C)Nc2ccccc2C(=O)O)c2nc(N3CC(C#N)C3)c(C#N)c(=O)n2c1` [Example 11-109, (R)-2-((1-(3-cyano-2-(3-cyanoazetidin-1-yl)-7-methyl-4-oxo-4H-pyrido[1,2-a]pyrimidin-9-yl)ethyl)amino)benzoic acid], the IC50 in experiment [1] was 1330 nM; in experiment [2], more than 10000 nM.

In the case of `C=C(C#N)CNc1nc2c([C@@H](C)Nc3ccccc3C(=O)O)cc(C)cn2c(=O)c1C` [Example 11-110, (R)-2-((1-(2-((2-cyanoallyl)amino)-3,7-dimethyl-4-oxo-4H-pyrido[1,2-a]pyrimidin-9-yl)ethyl)amino)benzoic acid], the values for the IC50 in experiment [1] and in experiment [2] were 4880 nM and more than 10000 nM, respectively.

Turning to `COC1CN(c2nc3c([C@@H](C)Nc4ccccc4C(=O)O)cc(C)cn3c(=O)c2C#N)C1` [Example 11-111, (R)-2-((1-(3-cyano-2-(3-methoxyazetidin-1-yl)-7-methyl-4-oxo-4H-pyrido[1,2-a]pyrimidin-9-yl)ethyl)amino)benzoic acid], the half-inhibitory concentration (IC50) in experiment [1] was 285 nM; in experiment [2], more than 10000 nM.

As to `COC1CN(c2nc3c([C@@H](C)Nc4ccccc4C(=O)O)cc(C)cn3c(=O)c2C)C1` [Example 11-112, (R)-2-((1-(2-(3-methoxyazetidin-1-yl)-3,7-dimethyl-4-oxo-4H-pyrido[1,2-a]pyrimidin-9-yl)ethyl)amino)benzoic acid], the values for the IC50 in experiment [1] and in experiment [2] were 184 nM and more than 10000 nM, respectively.

Regarding `Cc1cc([C@@H](C)Nc2ccccc2C(=O)O)c2nc(N3CC(F)C3)c(C#N)c(=O)n2c1` [Example 11-113, (R)-2-((1-(3-cyano-2-(3-fluoroazetidin-1-yl)-7-methyl-4-oxo-4H-pyrido[1,2-a]pyrimidin-9-yl)ethyl)amino)benzoic acid], the IC50 in experiment [1] is 249 nM; in experiment [2], more than 10000 nM.

Regarding `Cc1cc([C@@H](C)Nc2ccccc2C(=O)O)c2nc(N3CC(F)C3)c(C)c(=O)n2c1` [Example 11-114, (R)-2-((1-(2-(3-fluoroazetidin-1-yl)-3,7-dimethyl-4-oxo-4H-pyrido[1,2-a]pyrimidin-9-yl)ethyl)amino)benzoic acid], the IC50 in experiment [1] was 257 nM; in experiment [2] it was more than 10000 nM.

With `Cc1cc([C@@H](C)Nc2ccccc2C(=O)O)c2nc(N3CC(F)(F)C3)c(C)c(=O)n2c1` [Example 11-115, (R)-2-((1-(2-(3,3-difluoroazetidin-1-yl)-3,7-dimethyl-4-oxo-4H-pyrido[1,2-a]pyrimidin-9-yl)ethyl)amino)benzoic acid], the results for the IC50 in experiment [1] and in experiment [2] were 379 nM and more than 10000 nM, respectively.

Turning to `CO[C@H]1CN(c2nc3c([C@@H](C)Nc4ccccc4C(=O)O)cc(C)cn3c(=O)c2C#N)CC1(F)F` [Example 11-116, 2-(((R)-1-(3-cyano-2-((S)-3,3-difluoro-4-methoxypyrrolidin-1-yl)-7-methyl-4-oxo-4H-pyrido[1,2-a]pyrimidin-9-yl)ethyl)amino)benzoic acid], the IC50 in experiment [1] is 156 nM; in experiment [2], more than 10000 nM.

Take `CO[C@@H]1CN(c2nc3c([C@@H](C)Nc4ccccc4C(=O)O)cc(C)cn3c(=O)c2C)CC1(F)F` [Example 11-117, 2-(((R)-1-(2-((R)-3,3-difluoro-4-methoxypyrrolidin-1-yl)-3,7-dimethyl-4-oxo-4H-pyrido[1,2-a]pyrimidin-9-yl)ethyl)amino)benzoic acid]: the IC50 in experiment [1] is 350 nM; in experiment [2] it was more than 10000 nM.

On to `CO[C@H]1CN(c2nc3c([C@@H](C)Nc4ccccc4C(=O)O)cc(C)cn3c(=O)c2C)CC1(F)F` [Example 11-118, 2-(((R)-1-(2-((S)-3,3-difluoro-4-methoxypyrrolidin-1-yl)-3,7-dimethyl-4-oxo-4H-pyrido[1,2-a]pyrimidin-9-yl)ethyl)amino)benzoic acid], for which the figures for the IC50 in experiment [1] and in experiment [2] were 233 nM and more than 10000 nM, respectively.

`Cc1cc([C@@H](C)Nc2ccccc2C(=O)O)c2nc(N3C[C@H](C)C(F)(F)C3)c(C)c(=O)n2c1` [Example 11-119, 2-(((R)-1-(2-((S)-3,3-difluoro-4-methylpyrrolidin-1-yl)-3,7-dimethyl-4-oxo-4H-pyrido[1,2-a]pyrimidin-9-yl)ethyl)amino)benzoic acid]: the IC50 in experiment [1] is 132 nM; in experiment [2], more than 10000 nM.

In the case of `Cc1cc([C@@H](C)Nc2ccccc2C(=O)O)c2nc(N3C[C@@H](C)C(F)(F)C3)c(C)c(=O)n2c1` [Example 11-120, 2-(((R)-1-(2-((R)-3,3-difluoro-4-methylpyrrolidin-1-yl)-3,7-dimethyl-4-oxo-4H-pyrido[1,2-a]pyrimidin-9-yl)ethyl)amino)benzoic acid], the figures for the IC50 in experiment [1] and in experiment [2] were 168 nM and more than 10000 nM, respectively.

In the case of `Cc1cc([C@@H](C)Nc2ccccc2C(=O)O)c2nc(N3CC(C)C(F)(F)C3)c(C)c(=O)n2c1` (stereo partly drawn) [Example 11-121, 2-(((1R)-1-(2-(3,3-difluoro-4-methylpyrrolidin-1-yl)-3,7-dimethyl-4-oxo-4H-pyrido[1,2-a]pyrimidin-9-yl)ethyl)amino)benzoic acid], the IC50 came out at 60 nM in experiment [1] and 5220 nM in experiment [2].

On to `Cc1cc([C@@H](C)Nc2ccccc2C(=O)O)c2nc(N3CCC(F)(F)[C@@H]3C)c(C)c(=O)n2c1` [Example 11-122, 2-(((R)-1-(2-((S)-3,3-difluoro-2-methylpyrrolidin-1-yl)-3,7-dimethyl-4-oxo-4H-pyrido[1,2-a]pyrimidin-9-yl)ethyl)amino)benzoic acid], for which the IC50 in experiment [1] was 320 nM; in experiment [2], more than 10000 nM.

In the case of `Cc1cc([C@@H](C)Nc2ccccc2C(=O)O)c2nc(N3CCC(F)(F)[C@H]3C)c(C)c(=O)n2c1` [Example 11-123, 2-(((R)-1-(2-((R)-3,3-difluoro-2-methylpyrrolidin-1-yl)-3,7-dimethyl-4-oxo-4H-pyrido[1,2-a]pyrimidin-9-yl)ethyl)amino)benzoic acid], the IC50 was 285 nM in experiment [1] and more than 10000 nM in experiment [2].

Turning to `Cc1cc([C@@H](C)Nc2ccccc2C(=O)O)c2nc(N3CC(F)(F)C[C@H]3C)c(C)c(=O)n2c1` [Example 11-125, 2-(((R)-1-(2-((R)-4,4-difluoro-2-methylpyrrolidin-1-yl)-3,7-dimethyl-4-oxo-4H-pyrido[1,2-a]pyrimidin-9-yl)ethyl)amino)benzoic acid], the IC50 was 531 nM in experiment [1] and more than 10000 nM in experiment [2].

In the case of `Cc1cc([C@@H](C)Nc2ccccc2C(=O)O)c2nc(N3CC(F)(F)C[C@@H]3C)c(C)c(=O)n2c1` [Example 11-126, 2-(((R)-1-(2-((S)-4,4-difluoro-2-methylpyrrolidin-1-yl)-3,7-dimethyl-4-oxo-4H-pyrido[1,2-a]pyrimidin-9-yl)ethyl)amino)benzoic acid], the IC50 is 347 nM in experiment [1] and more than 10000 nM in experiment [2].

As for `Cc1cc([C@@H](C)Nc2ccccc2C(=O)O)c2nc(N3CC4CC3C4)c(C)c(=O)n2c1` [Example 11-127, (R)-2-((1-(2-(2-azabicyclo[2.1.1]hexan-2-yl)-3,7-dimethyl-4-oxo-4H-pyrido[1,2-a]pyrimidin-9-yl)ethyl)amino)benzoic acid], the figures for the half-maximal inhibitory concentration (IC50) in experiment [1] and in experiment [2] were 323 nM and more than 10000 nM, respectively.

`Cc1cc([C@@H](C)Nc2ccc(Cl)nc2C(=O)O)c2nc(N3CCN(c4ccc(C#N)cc4)C[C@H]3C)c(C#N)c(=O)n2c1` [Example 11-128, 6-chloro-3-(((R)-1-(3-cyano-2-((R)-4-(4-cyanophenyl)-2-methylpiperazin-1-yl)-7-methyl-4-oxo-4H-pyrido[1,2-a]pyrimidin-9-yl)ethyl)amino)picolinic acid]: the IC50 in experiment [1] was 275 nM; in experiment [2], more than 10000 nM.

In the case of `Cc1cc([C@@H](C)Nc2ccc(Cl)nc2C(=O)O)c2nc(N3CCN(c4ccc(C#N)cc4)C[C@@H]3C)c(C#N)c(=O)n2c1` [Example 11-129, 6-chloro-3-(((R)-1-(3-cyano-2-((S)-4-(4-cyanophenyl)-2-methylpiperazin-1-yl)-7-methyl-4-oxo-4H-pyrido[1,2-a]pyrimidin-9-yl)ethyl)amino)picolinic acid], the figures for the IC50 in experiment [1] and in experiment [2] were 960 nM and more than 10000 nM, respectively.

Regarding `Cc1cc([C@@H](C)Nc2ccc(Cl)nc2C(=O)O)c2nc(N3CCN(c4ccc(F)cc4)C[C@H]3C)c(C#N)c(=O)n2c1` [Example 11-131, 6-chloro-3-(((R)-1-(3-cyano-2-((R)-4-(4-fluorophenyl)-2-methylpiperazin-1-yl)-7-methyl-4-oxo-4H-pyrido[1,2-a]pyrimidin-9-yl)ethyl)amino)picolinic acid], the IC50 in experiment [1] is 310 nM; in experiment [2], more than 10000 nM.

On to `Cc1cc([C@@H](C)Nc2ccc(Cl)nc2C(=O)O)c2nc(N3CCN(c4ccc(C#N)cc4C)CC3)c(C#N)c(=O)n2c1` [Example 11-132, (R)-6-chloro-3-((1-(3-cyano-2-(4-(4-cyano-2-methylphenyl)piperazin-1-yl)-7-methyl-4-oxo-4H-pyrido[1,2-a]pyrimidin-9-yl)ethyl)amino)picolinic acid], for which the figures for the IC50 in experiment [1] and in experiment [2] were 172 nM and more than 10000 nM, respectively.

These data come from patent publication US20260078120A1, “SUBSTITUTED PYRIDOPYRIMIDINONES” (MIRATI THERAPEUTICS, INC., priority 2022, published 2026).
